For assay [1], the target named is recombinant human FGFR2 cytoplasmic domain (amino acids 403-822) (Homo sapiens (Human), UniProt P21802). Description: FGFR2 enzyme activity assay (LanthaScreen TR-FRET). Type of assay: biochemical. To be noted: 15 μM ATP, 20 min incubation at 22° C., average of multiple determinations if made, read-out: FGFR2 Enz FRET IC50. In outline:
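Substrate phosphorylation was read by TR-FRET using Eu-PY20 antibody (60 min, 22 °C) after a 20 min, 22 °C reaction. The reaction used 15 μM ATP, 100 nM fluorescent poly-GT peptide and His-tagged FGFR2 403-822 ([…]) at pH 7.5 with 2% DMSO.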
In general terms: Time-resolved FRET reads energy transfer from a long-lived donor to a nearby acceptor.

The target of assay [2] is FGFR1 (SEQ ID NO: 1, amino acids 458-765) (Homo sapiens (Human), UniProt P11362). Description: LC/MS FGFR1 kobs assay (covalent protein modification). Type of assay: binding. To be noted: 500 nM FGFR1, 3 μM compound. The method, boiled down:
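Covalent labeling of FGFR1 kinase domain (aa 458-765) tracked over time by intact-protein LC/MS after formic acid quench. kobs derived by fitting DMSO-normalized percent unmodified FGFR1 to an exponential decay model.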

In assay [3] the target is FGFR3 (SEQ ID NO: 5, amino acids 449-759) (Homo sapiens (Human), UniProt P22607). The assay can be described thus: LC/MS FGFR3 kobs assay (covalent protein modification). To be noted: 500 nM FGFR3, 3 μM compound. The class given is binding. In outline:
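Quench: 0.4% formic acid at each time point. Readout: intact-protein LC/MS (Q-TOF), deconvoluted masses. Analysis: % unmodified, normalized to DMSO controls, fit to exponential decay → kobs; mean of replicates where repeated.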

For assay [4], the target named is dephosphorylated FGFR1 (SEQ ID NO: 1, amino acids 458 to 765) (Homo sapiens (Human), UniProt P11362). The assay can be described thus: FGFR enzyme binding assay (HTRF tracer displacement), FGFR1. To be noted: 5 nM dephosphorylated FGFR1, average of multiple determinations if made. In outline:
(§1)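 Kinase and tracer were incubated with compound for 60 minutes at 22° C. Tracer displacement was then measured by HTRF, and results were expressed as POC with 1 μM control inhibitor defining full displacement.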

Assay [5] has as its target HEK-293 cells transfected with dox-inducible human wild type FGFR1 (Homo sapiens (Human), UniProt P11362). The assay can be described thus: FGFR1 pERK cell assay. The class given is cell-based. To be noted: HEK-293 dox-inducible FGFR1, 1 hour compound, 100 ng/ml FGF-acidic; maximum concentration 5 μM. The method, boiled down:
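In HEK-293 cells with dox-induced human wild-type FGFR1, compounds (1:3 dilutions, top 5 μM final) were applied 1 h at 37°C before 5 min stimulation with 100 ng/ml FGF-acidic. Phospho-ERK1/2 measured by MSD sandwich immunoassay; IC50 from 4-parameter fit of POC versus vehicle and control compound.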

The target of assay [6] is phosphorylated FGFR3 (SEQ ID NO: 5, amino acids 449 to 759) (Homo sapiens (Human), UniProt P22607). The assay can be described thus: FGFR enzyme binding assay (HTRF tracer displacement), FGFR3. To be noted: 5 nM phosphorylated FGFR3, average of multiple determinations if made. The method, boiled down:
as §1

Molecules are shown by their SMILES.

recombinant human FGFR2 cytoplasmic domain (amino acids 403-822), sequence (P21802 402-821): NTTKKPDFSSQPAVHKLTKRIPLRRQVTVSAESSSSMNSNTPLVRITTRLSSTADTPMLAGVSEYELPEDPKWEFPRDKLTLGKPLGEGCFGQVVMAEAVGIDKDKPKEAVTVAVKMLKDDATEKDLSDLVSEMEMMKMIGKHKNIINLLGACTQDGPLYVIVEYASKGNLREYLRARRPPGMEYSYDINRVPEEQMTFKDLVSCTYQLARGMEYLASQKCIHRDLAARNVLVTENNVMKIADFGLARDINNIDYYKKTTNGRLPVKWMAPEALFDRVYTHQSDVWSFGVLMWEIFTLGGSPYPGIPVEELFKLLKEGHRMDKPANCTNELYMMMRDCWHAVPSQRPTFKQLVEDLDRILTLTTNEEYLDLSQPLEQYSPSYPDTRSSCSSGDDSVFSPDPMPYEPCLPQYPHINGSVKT
HEK-293 cells transfected with dox-inducible human wild type FGFR1, sequence (P11362 22-822): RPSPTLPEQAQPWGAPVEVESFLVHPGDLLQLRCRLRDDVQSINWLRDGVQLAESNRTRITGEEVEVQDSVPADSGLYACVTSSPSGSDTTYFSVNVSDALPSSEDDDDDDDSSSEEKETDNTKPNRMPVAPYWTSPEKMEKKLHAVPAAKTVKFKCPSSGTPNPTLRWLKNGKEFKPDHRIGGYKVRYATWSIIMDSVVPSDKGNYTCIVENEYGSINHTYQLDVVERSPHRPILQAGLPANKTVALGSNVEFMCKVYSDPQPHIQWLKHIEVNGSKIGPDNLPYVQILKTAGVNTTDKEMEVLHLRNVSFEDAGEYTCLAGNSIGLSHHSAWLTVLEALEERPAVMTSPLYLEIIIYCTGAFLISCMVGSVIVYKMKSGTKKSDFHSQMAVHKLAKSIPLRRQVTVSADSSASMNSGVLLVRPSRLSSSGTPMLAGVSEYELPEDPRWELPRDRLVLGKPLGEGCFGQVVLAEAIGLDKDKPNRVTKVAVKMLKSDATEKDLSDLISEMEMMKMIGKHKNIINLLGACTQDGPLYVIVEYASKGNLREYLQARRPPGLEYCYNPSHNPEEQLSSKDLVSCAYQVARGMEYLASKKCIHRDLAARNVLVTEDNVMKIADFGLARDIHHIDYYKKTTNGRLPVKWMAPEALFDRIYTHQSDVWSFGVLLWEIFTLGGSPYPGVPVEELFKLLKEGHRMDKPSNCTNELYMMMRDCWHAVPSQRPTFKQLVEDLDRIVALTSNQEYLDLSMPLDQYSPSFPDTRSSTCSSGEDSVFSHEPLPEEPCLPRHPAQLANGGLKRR
FGFR3 (SEQ ID NO: 5, amino acids 449-759), sequence (P22607 449-759): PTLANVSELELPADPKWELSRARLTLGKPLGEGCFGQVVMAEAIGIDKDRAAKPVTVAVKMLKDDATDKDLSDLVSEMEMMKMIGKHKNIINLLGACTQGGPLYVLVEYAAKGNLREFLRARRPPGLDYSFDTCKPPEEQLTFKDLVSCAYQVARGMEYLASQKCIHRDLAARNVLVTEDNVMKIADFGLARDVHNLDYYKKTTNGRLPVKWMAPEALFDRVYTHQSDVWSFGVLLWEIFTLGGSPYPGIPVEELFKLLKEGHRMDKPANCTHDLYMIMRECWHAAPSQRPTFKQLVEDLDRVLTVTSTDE
phosphorylated FGFR3 (SEQ ID NO: 5, amino acids 449 to 759), sequence (P22607 449-759): as above
FGFR1 (SEQ ID NO: 1, amino acids 458-765), sequence (P11362 458-765): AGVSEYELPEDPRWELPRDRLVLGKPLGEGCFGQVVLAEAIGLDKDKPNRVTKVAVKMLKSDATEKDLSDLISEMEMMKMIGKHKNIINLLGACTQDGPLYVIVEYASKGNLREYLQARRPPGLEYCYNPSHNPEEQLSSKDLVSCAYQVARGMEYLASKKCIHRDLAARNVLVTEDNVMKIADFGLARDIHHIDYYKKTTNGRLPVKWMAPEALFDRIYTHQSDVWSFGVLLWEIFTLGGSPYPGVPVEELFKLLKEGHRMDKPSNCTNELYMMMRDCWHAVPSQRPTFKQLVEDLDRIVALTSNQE
dephosphorylated FGFR1 (SEQ ID NO: 1, amino acids 458 to 765), sequence (P11362 458-765): as above

Broadly, the IC50 is the concentration that gives 50% inhibition. As for `C=CC(=O)N1CC(F)(C(=O)N2CCC(n3ncc(-c4cc(OC)c5c(C#N)cnn5c4)c3CC)CC2)C1` [Example 96, 6-(1-(1-(1-acryloyl-3-fluoroazetidine-3-carbonyl)piperidin-4-yl)-5-ethyl-1H-pyrazol-4-yl)-4-methoxypyrazolo[1,5-a]pyridine-3-carbonitrile], the half-inhibitory concentration (IC50) was found to be 155 nM in assay [1], 1620 nM in assay [4], 2100 nM in assay [5] and 73 nM in assay [6]. For the same compound, in assay [2], the “FGFR1 Enz kobs” value was determined as 0.00363 min⁻¹. Moreover, the “FGFR3 Enz kobs” value in assay [3] worked out at 0.03335 min⁻¹.
As for `C=CC(=O)N1CC(C(=O)N2CCN(c3ccc(-c4cc(OC)c5c(C#N)cnn5c4)cc3)CC2)C1` [Example 100, 6-(4-(4-(1-acryloylazetidine-3-carbonyl)piperazin-1-yl)phenyl)-4-methoxypyrazolo[1,5-a]pyridine-3-carbonitrile], the IC50 is 5 nM in assay [1], 57 nM in assay [4], 180 nM in assay [5] and 5 nM in assay [6]. Besides, in assay [2], the “FGFR1 Enz kobs” value was 0.0025 min⁻¹. For the same compound, in assay [3], the “FGFR3 Enz kobs” value was 0.02324 min⁻¹.
Regarding `C=CC(=O)N1CC(C(=O)N2CCC3(CC2)CN(c2ccc(-c4cc(OC)c5c(C#N)cnn5c4)cn2)C3)C1` [Example 102, 6-(6-(7-(1-acryloylazetidine-3-carbonyl)-2,7-diazaspiro[3.5]nonan-2-yl)pyridin-3-yl)-4-methoxypyrazolo[1,5-a]pyridine-3-carbonitrile], the half-inhibitory concentration (IC50) stood at 11 nM in assay [1], 44 nM in assay [4], 239 nM in assay [5] and 6 nM in assay [6]. In addition, the “FGFR1 Enz kobs” value in assay [2] turned out to be 0.00313 min⁻¹. Also, in assay [3], the “FGFR3 Enz kobs” value was 0.02912 min⁻¹.
Regarding `C=CC(=O)N1CC(C(=O)N2CCC3(C2)CN(c2ccc(-c4cc(OC)c5c(C#N)cnn5c4)cn2)C3)C1` [Example 103, 6-(6-(6-(1-acryloylazetidine-3-carbonyl)-2,6-diazaspiro[3.4]octan-2-yl)pyridin-3-yl)-4-methoxypyrazolo[1,5-a]pyridine-3-carbonitrile], the IC50 in assay [1] is 10 nM; in assay [4], 70 nM; in assay [5], 573 nM; in assay [6] it was 10 nM. Moreover, the “FGFR1 Enz kobs” value in assay [2] turned out to be 0.00388 min⁻¹. In addition, the “FGFR3 Enz kobs” value in assay [3] worked out at 0.02186 min⁻¹.
For `C=CC(=O)N1CC(C(=O)N2CC3(C2)CN(c2ccc(-c4cc(OC)c5c(C#N)cnn5c4)cn2)C3)C1` [Example 104, 6-(6-(6-(1-acryloylazetidine-3-carbonyl)-2,6-diazaspiro[3.3]heptan-2-yl)pyridin-3-yl)-4-methoxypyrazolo[1,5-a]pyridine-3-carbonitrile], the IC50 in assay [1] turned out to be 20 nM; in assay [4], 72 nM; in assay [5], 1110 nM; in assay [6] it was 12 nM. Besides, the “FGFR1 Enz kobs” value in assay [2] was 0.00386 min⁻¹. The “FGFR3 Enz kobs” value in assay [3] is 0.03006 min⁻¹.
Take `C=CC(=O)N1CC(C(=O)N2CC3CC(C2)N3c2ccc(-c3cc(OC)c4c(C#N)cnn4c3)cn2)C1` [Example 105, 6-(6-(3-(1-acryloylazetidine-3-carbonyl)-3,6-diazabicyclo[3.1.1]heptan-6-yl)pyridin-3-yl)-4-methoxypyrazolo[1,5-a]pyridine-3-carbonitrile]: the IC50 in assay [1] was found to be 42 nM; in assay [4] it was 435 nM; in assay [5] it was 3960 nM; in assay [6] it was 97 nM. Besides, the “FGFR1 Enz kobs” value in assay [2] was 0.00042 min⁻¹. Also, the “FGFR3 Enz kobs” value in assay [3] was 0.00147 min⁻¹.
On to `C=CC(=O)N1CC(C(=O)N2C[C@@H]3C[C@H]2CN3c2ccc(-c3cc(OC)c4c(C#N)cnn4c3)cn2)C1` [Example 106, 6-(6-((1S,4S)-5-(1-acryloylazetidine-3-carbonyl)-2,5-diazabicyclo[2.2.1]heptan-2-yl)pyridin-3-yl)-4-methoxypyrazolo[1,5-a]pyridine-3-carbonitrile], for which the IC50 was 11 nM in assay [1], 62 nM in assay [4], 955 nM in assay [5] and 9 nM in assay [6]. In assay [2], the “FGFR1 Enz kobs” value is 0.00246 min⁻¹. Further, the “FGFR3 Enz kobs” value in assay [3] worked out at 0.01259 min⁻¹.
For the compound `C=CC(=O)N1CC(C(=O)N2C[C@H]3C[C@@H]2CN3c2ccc(-c3cc(OC)c4c(C#N)cnn4c3)cn2)C1` [Example 107, 6-(6-((1R,4R)-5-(1-acryloylazetidine-3-carbonyl)-2,5-diazabicyclo[2.2.1]heptan-2-yl)pyridin-3-yl)-4-methoxypyrazolo[1,5-a]pyridine-3-carbonitrile], the IC50 in assay [1] amounted to 9 nM; in assay [4], 108 nM; in assay [5], 1350 nM; in assay [6], 16 nM. The “FGFR1 Enz kobs” value in assay [2] was found to be 0.00291 min⁻¹. For the same compound, in assay [3], the “FGFR3 Enz kobs” value came to 0.01688 min⁻¹.
As to `C=CC(=O)N1CC(CN2C[C@H]3C[C@@H]2CN3c2ccc(-c3cc(OC)c4c(C#N)cnn4c3)cn2)C1` [Example 108, 6-(6-((1R,4R)-5-((1-acryloylazetidin-3-yl)methyl)-2,5-diazabicyclo[2.2.1]heptan-2-yl)pyridin-3-yl)-4-methoxypyrazolo[1,5-a]pyridine-3-carbonitrile], the IC50 in assay [1] is 7 nM; in assay [4], 55 nM; in assay [5], 116 nM; in assay [6], 11 nM. Moreover, in assay [2], the “FGFR1 Enz kobs” value was found to be 0.00291 min⁻¹. The “FGFR3 Enz kobs” value in assay [3] came out at 0.01344 min⁻¹.
On to `C=CC(=O)N1CC(C(=O)N2CCN(c3ccc(-c4cc(OC)c5c(C#N)cnn5c4)cn3)CC2)C1` [Example 111, 6-(6-(4-(1-acryloylazetidine-3-carbonyl)piperazin-1-yl)pyridin-3-yl)-4-methoxypyrazolo[1,5-a]pyridine-3-carbonitrile], for which the 50% inhibitory concentration (IC50) was found to be 4 nM in assay [1], 144 nM in assay [4], 288 nM in assay [5] and 11 nM in assay [6]. Besides, in assay [2], the “FGFR1 Enz kobs” value came to 0.00263 min⁻¹. In addition, the “FGFR3 Enz kobs” value in assay [3] worked out at 0.04009 min⁻¹.
Consider `C=CC(=O)N1CC(F)(C(=O)N2CCN(c3ccc(-c4cc(OC)c5c(C#N)cnn5c4)cn3)CC2)C1` [Example 112, 6-(6-(4-(1-acryloyl-3-fluoroazetidine-3-carbonyl)piperazin-1-yl)pyridin-3-yl)-4-methoxypyrazolo[1,5-a]pyridine-3-carbonitrile], for which the IC50 in assay [1] was determined as 9 nM; in assay [4], 82 nM; in assay [5], 122 nM; in assay [6], 4 nM. The “FGFR1 Enz kobs” value in assay [2] amounted to 0.00852 min⁻¹. Further, the “FGFR3 Enz kobs” value in assay [3] was found to be 0.1108 min⁻¹.
As for `C=CC(=O)N1CC(C(=O)N2CCN(c3ncc(-c4cc(OC)c5c(C#N)cnn5c4)cc3C)CC2)C1` [Example 113, 6-(6-(4-(1-acryloylazetidine-3-carbonyl)piperazin-1-yl)-5-methylpyridin-3-yl)-4-methoxypyrazolo[1,5-a]pyridine-3-carbonitrile], the IC50 turned out to be 42 nM in assay [1], 388 nM in assay [4], 1570 nM in assay [5] and 45 nM in assay [6]. Further, the “FGFR1 Enz kobs” value in assay [2] was determined as 0.00304 min⁻¹. The “FGFR3 Enz kobs” value in assay [3] was 0.02175 min⁻¹.
As for `C=CC(=O)N1CC(F)(C(=O)N2CCN(c3cc(C)c(-c4cc(OC)c5c(C#N)cnn5c4)cn3)CC2)C1` [Example 114, 6-(6-(4-(1-acryloyl-3-fluoroazetidine-3-carbonyl)piperazin-1-yl)-4-methylpyridin-3-yl)-4-methoxypyrazolo[1,5-a]pyridine-3-carbonitrile], the half-maximal inhibitory concentration (IC50) was 150 nM in assay [1], 850 nM in assay [4], 1310 nM in assay [5] and 63 nM in assay [6]. The “FGFR1 Enz kobs” value in assay [2] worked out at 0.00369 min⁻¹. In addition, the “FGFR3 Enz kobs” value in assay [3] stood at 0.03264 min⁻¹.
For `C=CC(=O)N1CC(C(=O)N2CCN(c3ccc(-c4cc(OC)c5c(C#N)cnn5c4)nn3)CC2)C1` [Example 115, 6-(6-(4-(1-acryloylazetidine-3-carbonyl)piperazin-1-yl)pyridazin-3-yl)-4-methoxypyrazolo[1,5-a]pyridine-3-carbonitrile], the IC50 was 25 nM in assay [1], 90 nM in assay [4], not below 5000 nM in assay [5] and 11 nM in assay [6]. Moreover, the “FGFR1 Enz kobs” value in assay [2] turned out to be 0.0016 min⁻¹. Also, in assay [3], the “FGFR3 Enz kobs” value was 0.01937 min⁻¹.

The values are drawn from US12180207B2 (ARRAY BIOPHARMA INC., priority 2018, dated 2024).
